# In US6362220B1, “Anticonvulsant derivatives useful in reducing blood glucose levels” (Ortho-McNeil Pharmaceutical, Inc., priority 1999, dated 2002):
# Legend:
# [1] = several rodent models; cited from earlier work
# [2] = human epilepsy; adjunctive therapy or monotherapy; cited from earlier work
# [3] = retrospective analysis of long term open-label studies in epilepsy: blood glucose; assay type: in vivo, human; details: 14 epilepsy patients, overweight (>100 kg) with high blood glucose (>115 mg/dl); study mean daily dosage 622 mg/day, mean duration 689 days
# [4] = animal model of kindled epilepsy; cited from earlier work
structure (smiles),measurement,setting,value
"CC1(C)O[C@@H]2[C@@H](CO[C@@]3(COS(N)(=O)=O)OC(C)(C)O[C@@H]23)O1 [topiramate, 2,3:4,5-bis-O-(1-methylethylidene)-β-D-fructopyranose sulfamate]",seizure block in rodent models of epilepsy,[1],effectively block seizures
same,efficacy in treating seizures in clinical trials,[2],effective as adjunctive therapy or as monotherapy
same,reduction in blood glucose,[3],5.8%
same,seizure block in kindled epilepsy model,[4],effectively block seizures
